# Assay results published in patent US11999782B2, “Therapeutic agents for the treatment of diseases associated with undesired cell proliferation” (Fundació Privada Institutció Catalana de Recerca I Estudis …, priority 2009, dated 2024).
# Experiments:
# [1] = test system: LIF expression in PCTC cells; assay: LIF mRNA by qRT-PCR in PCTCs of human GBM; type: cell-based; conditions: PCTCs from 11 human GBMs, 100 pM TGFβ1, 3 hours, medium without serum
# Protocol: FIG. 3. TGFβ induces the expression of LIF in PCTC and GBM neurospheres. (A) PCTC cells of the 11 samples of the indicated GEM (GBM1-11) were treated with 100 pM TGFβ1 for 3 hours in medium without serum or left untreated, and the expression levels of LIF were determined by means of qRT-PCR. The g-actin was determined as an internal normalization control. (B) GBM neurosphere cells were treated as in A and the expression levels of LIF were determined by means of qRT-PCR as in A. (C) GBM neurospheres were incubated with 100 pM TGFβ1 and/or 2 μM TβRI inhibitor for 3 hours in medium without serum and the mRNA levels of LIF were determined by means of qRT-PCR as in A. (D) GBM1 neurospheres were incubated with 100 pM TGFβ1, TGFβ2 and TGFβ3 for 3 hours in medium without serum and the mRNA levels of LIF were determined by means of qRT-PCR as in A. (E) The levels of LIF protein secreted were determined by means of ELISA in GBM1 neurospheres after 48 hours of treatment with 100 pM TGFβ1. […]
# qRT-PCR was performed using Taqman probes from Applied Biosystems, according to the manufacturer's recommendations. The reactions were carried out in a ABI 7000 sequence detector (Perkin Elmer) and the results were expressed as the fold change calculated by means of the DDCt method relative to the control sample or the first quantified sample. […]
# LIF protein secretion = assay: Secreted LIF protein by ELISA in GBM1 neurospheres; type: cell-based, human; conditions: 48 hours, 100 pM TGFβ1
# Protocol: FIG. 3. TGFβ induces the expression of LIF in PCTC and GBM neurospheres. (A) PCTC cells of the 11 samples of the indicated GEM (GBM1-11) were treated with 100 pM TGFβ1 for 3 hours in medium without serum or left untreated, and the expression levels of LIF were determined by means of qRT-PCR. The g-actin was determined as an internal normalization control. (B) GBM neurosphere cells were treated as in A and the expression levels of LIF were determined by means of qRT-PCR as in A. (C) GBM neurospheres were incubated with 100 pM TGFβ1 and/or 2 μM TβRI inhibitor for 3 hours in medium without serum and the mRNA levels of LIF were determined by means of qRT-PCR as in A. (D) GBM1 neurospheres were incubated with 100 pM TGFβ1, TGFβ2 and TGFβ3 for 3 hours in medium without serum and the mRNA levels of LIF were determined by means of qRT-PCR as in A. (E) The levels of LIF protein secreted were determined by means of ELISA in GBM1 neurospheres after 48 hours of treatment with 100 pM TGFβ1.
# For the quantitative determination of the levels of LIF protein secreted to the medium, the human LIF ELISA kit (R&D Systems) was used, following the manufacturer's specifications. […]
# It was decided to investigate the molecular mechanisms responsible for the effect of TGFβ on GICs. […] A panel of PCTCs derived from 11 different human GBMs was treated with TGFβ for 3 hours and the levels of LIF mRNA were determined.
substance,measurement,setting,value
"TGFβ: TGFβ1 (R&D Systems), used at 100 pM according to the figure legends",levels of LIF mRNA in PCTCs,[1],induced LIF in all the PCTCs assayed
same,"secretion of the LIF protein (ELISA, conditioned neurosphere medium)",LIF protein secretion,increase in the secretion of the LIF protein
